Entries after “also recorded” stand apart in the source; their conditions may differ. Like-named read-outs stand apart in the source and are kept apart here.
Experiments:
IL-1β = assay: Cytokine secretion into blood circulation in LPS injected mice, IL-1β; type: in vivo, Balb/C female mice; conditions: 2 mg/kg i.v., LPS 3 mg/kg i.p., plasma 90 minutes after LPS
Experimental: (§1) Balb/C female mice (average body weight 20 g, Harlan, Israel) were injected i.v. at a volume dosage of 5 ml/kg with either vehicle or test compounds at a dose of 2 mg/kg. Each treatment group comprised at least 9 animals. Immediately after compound or control administration, the mice were injected i.p. with 3 mg/kg LPS (E. coli 055:B5, Calbiochem). Ninety minutes after LPS induction, blood samples were collected into heparanized test tubes. Plasma was separated by centrifugation (10,000 rpm for 5 minutes at RT) and stored at −20° C. until assayed. The level of the inflammatory mediator under study, IL-1β, IL-6, IL-10 or TNF-α, was assayed by ELISA techniques.
(§2) The technique used to quantify the amount of a given protein in a liquid sample, either tissue culture supernatant or body fluid, is based on Enzyme Linked ImmunoSorbent Assay (ELISA) methodology. Either commercially available or established in house, the assay is based on the capture of the protein of interest by specific antibodies bound to the bottom of an ELISA plate well. Unbound material is washed away, the captured protein is then exposed to a secondary antibody generally labeled with horseradish peroxidase (HRP) or alkaline phosphatase (ALP). Again the unbound material is washed away, and the samples are then incubated with the appropriate substrate yielding a colorimetric reaction. The reaction is stopped and reading is performed in a spectrophotometer at the appropriate wavelength. Samples are tested at least in duplicate and the appropriate standard curve, consisting of serial dilutions of the recombinant target protein, is incorporated on each plate. The concentration of the protein in the sample is calculated from the standard curve.
(§3) The results are expressed as percent inhibition of secretion, taking into account the maximal cytokine concentration in vehicle “treated” animals and the baseline level in naïve animals. […] Inhibition above 50% was considered highly significant.

IL-6 = assay: Cytokine secretion into blood circulation in LPS injected mice, IL-6; type: in vivo, Balb/C female mice; conditions: 2 mg/kg i.v., LPS 3 mg/kg i.p., plasma 90 minutes after LPS
Experimental: as §1, §2, §3

IL-10 = assay: Cytokine secretion into blood circulation in LPS injected mice, IL-10; type: in vivo, Balb/C female mice; conditions: 2 mg/kg i.v., LPS 3 mg/kg i.p., plasma 90 minutes after LPS
Experimental: as §1, §2, §3

TNF-α = assay: Cytokine secretion into blood circulation in LPS injected mice, TNF-α; type: in vivo, Balb/C female mice; conditions: 2 mg/kg i.v., LPS 3 mg/kg i.p., plasma 90 minutes after LPS
Experimental: as §1, §2, §3

[1] = test system: visceral pain writhing responses; assay: Visceral pain, acetic acid induced writhing responses; type: in vivo, Male ICR mice; conditions: single dose 2 mg/kg i.v., compared to untreated group
[2] = test system: carrageenan induced inflammatory pain and paw edema; assay: Inflammatory pain and paw edema induced by carrageenan; type: in vivo, Male Sprague Dawley rats; conditions: 10 mg/kg i.p.; for inhibition in vivo at 10 mg/kg: Rattus norvegicus, ip
Procedure, shortened: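 Male Sprague Dawley rats (~200 g) received 0.1 ml 2% λ-carrageenan subplantar in the right paw; compounds given i.p. at 3, 10 or 20 mg/kg (some p.o.) immediately after. Thermal (Hargreaves) latency, mechanical threshold, paw thickness and volume measured at 0 and 3 h; values are inter-paw differences ([…], ΔForce), volume as % of vehicle.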

[3] = test system: CB1 related cannabimimetic activity; assay: Safety: body temperature, catalepsy, spontaneous locomotor activity, elevated plus maze, sensitivity to touch; type: in vivo, ICR male mice; conditions: 2 mg/kg i.v.
Experimental: In the present study, impact of compounds of the invention on the central nervous system was measured by monitoring the body temperature, catalepsy and spontaneous locomotor activity of rodents. These activities are part of the Tetrad assays which are indicative, if all parameters are affected, of CB1 mediated activity. In addition, lack of CNS psychomimetic effect was assessed in the elevated plus maze model. Finally, sensitivity to touch was determined in order to evaluate peripheral CB1 related activity.
ICR male mice (average body weight 25 g, Harlan, Israel) were administered the compounds of the invention i.v. at a dose of 2 mg/kg and at a volume dose of 5 ml/kg. The psychoactive cannabinoid HU-210 was used as positive control at the 100-fold lower dose of 0.02 mg/kg i.v. The following measurements were made starting 15 minutes after compound administration. All tests were completed for each animal within approximately 10 minutes. Rectal temperature was monitored using a thermistor probe (YSI model 400, USA). Spontaneous locomotion was assessed using the open field methodology. The number of squares crossed by the animals were recorded and analyzed during a period of three minutes. At the end of the open field test, the animals were tested for catalepsy symptoms. This was carried out by gently forcing the animal to stand on its hind paws when its front paws are holding on an elevated beam. The time for the animal to step down of the beam was measured in seconds. A normal animal withdraws the beam immediately whereas cataleptic animal tend to stay on the beam. The longer the animal stays leaning on the beam, the more cataleptic the animal is. The behavior of the animals was then assessed in the elevated plus maze. The elevated plus maze consists of two open arms and two arms that are enclosed by high walls (arms 30×10 cm, wall height 20 cm). The elevated plus maze is usually elevated 80 cm above the floor. The mouse is placed on the maze head facing an open arm, and the time spent in the different compartments of the maze (open arms, closed arms and central area) are measured for the next 5 minutes. Results are expressed as percent of the time spent in the open arms, normal animals preferring to stay in the closed arms of the maze. Finally, animals were gently touched by an observer blinded for the treatment group and their sensitivity scored according to the following scale: 0 not sensitive, 1 sensitive and 2 highly sensitive. Results are expressed as average±SEM. At the end of the study, the animals were euthanized.

[4] = 10 mg/kg i.v.; cited from earlier work
[5] = test system: pentobarbital-induced sleep; conditions: 10 mg/kg i.v.; cited from earlier work
[6] = test system: visceral pain writhing responses; assay: Tolerance: repeated administration in the model of Visceral Pain; type: in vivo, mice; conditions: tested day 11 at 2 mg/kg i.v.
Experimental: Male ICR mice (average body weight 25 g, Harlan, Israel) were pretreated by i.v. injection at volume dose of 5 ml/kg of vehicle, control and test compounds at various doses. Other routes of administration were tested for selected compounds including i.m. or s.c. injections at volume dose of 2.5 ml/kg and p.o. gavage at volume dose of 5 ml/kg. Compounds were dissolved in CREMOPHOR®:Ethanol and diluted 1:20 in saline prior to injection or gavage. Compounds administered i.v. were injected fifteen minutes before pain induction, whereas compounds administered i.m., s.c. or p.o. were supplied thirty minutes before pain induction, unless otherwise indicated. Each treatment group, except for controls comprising at least 30 animals, was composed of at least 6 animals. Fifteen or thirty minutes after drug administration, depending on the route of administration, the mice were injected i.p. with 10 ml/kg of 0.6% acetic acid and the number of visceral pain related behaviors (writhing movements globally defined as WR, i.e. stretching, contractions of the abdomen accompanied by an elongation of the body and extension of the hind limbs) was counted over a period of 5 minutes, starting 5 minutes after the acetic acid administration. These visceral pain related behaviors were globally defined as writhing responses (WR). The results are expressed as mean number of writhing responses ±SEM. Data were analyzed using analysis of variance (ANOVA) followed by post-hoc Fisher test.
Briefly compounds of the invention were administered at 10 mg/kg i.p. daily for 10 days and their analgesic activity was tested on day 11 as described in Example 17 (namely at 2 mg/kg i.v.). […] Each treatment group comprised 10 animals.

## CCCCCCC(C)(C)c1cc(O)c2c(c1)OC1C(O)CCCC21 (stereo not shown) [Compound C6S-5, 3-(1,1-Dimethylheptyl)-5a,6,7,8,9,9a-hexahydro-dibenzofuran-1,6-diol]
IL-1β
  Inhibition of cytokine secretion into blood circulation, IL-1β: NO (NO indicates that the compound tested did not significantly affect the level of cytokine in plasma of LPS injected mice and that its activity is comparable to vehicle, within ±20% from this control)
IL-6
  Inhibition of cytokine secretion into blood circulation, IL-6: 85%
IL-10
  Inhibition of cytokine secretion into blood circulation, IL-10: 84%
TNF-α
  Inhibition of cytokine secretion into blood circulation, TNF-α: NO (NO indicates that the compound tested did not significantly affect the level of cytokine in plasma of LPS injected mice and that its activity is comparable to vehicle, within ±20% from this control)
[1]; Mus musculus, iv, read-out: Percent Inhibition of Visceral Pain Writhing Responses
  inhibition in vivo at 2 mg/kg: 35%
[2]; 3 hours after carrageenan, reduction in paw swelling, read-out: Percent Inhibition of Inflammatory Pain Responses, Edema
  inhibition in vivo at 10 mg/kg: 56%
[2]; 3 hours, mechanical stimulus, read-out: Percent Inhibition of Inflammatory Pain Responses, ΔForce
  inhibition in vivo at 10 mg/kg: 34%
[2]; 3 hours, thermal stimulus, read-out: Percent Inhibition of Inflammatory Pain Responses, ΔLT
  inhibition in vivo at 10 mg/kg: 61%
[3]
  adverse cannabimimetic activities in any of the parameters monitored: None

## C=C(C)[C@@H]1CC[C@](C)(O)[C@H]2Oc3cc(CCCCC)cc(O)c3[C@@H]12 [CBE]
[4]
  effect on body temperature of mice: does not affect body temperature of mice
[5]
  prolongation of pentobarbital-induced sleep: nor does it prolong pentobarbital-induced sleep

## CCCCCCC(C)(C)c1cc(O)c2c(c1)OC1CCCCCC21 (stereo not drawn) [Compound C7S-1, 2-(1,1-dimethylheptyl)-5,6,7,8,9,9a-hexahydro-4bH-10-oxa-benzo[α]azulen-4-ol]
IL-1β
  Inhibition of cytokine secretion into blood circulation, IL-1β: NO (NO indicates that the compound tested did not significantly affect the level of cytokine in plasma of LPS injected mice and that its activity is comparable to vehicle, within ±20% from this control)
IL-6
  Inhibition of cytokine secretion into blood circulation, IL-6: 82%
IL-10
  Inhibition of cytokine secretion into blood circulation, IL-10: 82%
TNF-α
  Inhibition of cytokine secretion into blood circulation, TNF-α: NO (NO indicates that the compound tested did not significantly affect the level of cytokine in plasma of LPS injected mice and that its activity is comparable to vehicle, within ±20% from this control)
[1]
  Percent Inhibition of Visceral Pain Writhing Responses: 76%
[2]; 3 hours after carrageenan, reduction in paw swelling
  Percent Inhibition of Inflammatory Pain Responses, Edema: 60%
[2]; 3 hours, mechanical stimulus
  Percent Inhibition of Inflammatory Pain Responses, ΔForce: 13%
[2]; 3 hours, thermal stimulus
  Percent Inhibition of Inflammatory Pain Responses, ΔLT: 0%
[3]
  adverse cannabimimetic activities in any of the parameters monitored: None
[3]; non-significant
  decrease of rectal temperature: about 1.2 °C
[3]; vehicle 38.88±0.11° C.
  rectal temperature: 37.45±0.39 °C

## CN1CC[C@]23c4c5ccc(O)c4O[C@H]2[C@@H](O)C=C[C@H]3[C@H]1C5 [morphine, reference compound]
[1]; 2 mg/kg
  Percent Inhibition of Visceral Pain Writhing Responses: eradicated the pain response; also recorded: totally eliminated the pain response
[6]; repeated administration daily for 10 days (10 mg/kg i.p.), vehicle 29.75±1.09
  writhing responses on day 11: 9.60±2.85
[6]; repeated administration daily for 10 days
  reduction in pain response after repeated administration: 68%

Reference: patent US20090054376A1, “BENZOFURAN DERIVATIVES WITH THERAPEUTIC ACTIVITIES” (Pharmos Corporation, priority 2005, published 2009)
